Tests used:
MCF7 cells = assay: ER+ human breast tumor tissue xenografted into nude rats; format: in vivo, nude rat (Rnu/Rnu); conditions: for Volume variations (expressed as % of E1S positive control group): oral 5 mg/kg/day, nude rats supplemented with E1S
Protocol: MCF7 cells (ATCC), derived from human breast adenocarcinoma, were injected subcutaneously in ovariectomized athymic nude mice supplemented with a daily administration of subcutaneous estradiol. Xenograft volumes were determined weekly. After 8 weeks, tumor volumes reached 1000 mm3, providing 500 mg samples of estrogen responsive tissues for each animals. At this time each tumor was sliced and regrafted into naïve ovariectomized nude rat (Rnu/Rnu). Then animals were treated with estrone sulfate as precursor of estradiol by the steroid sulfatase pathway. When tumor volumes reached significant increase, distinct from the placebo, animals were randomized and separated in two groups. The first group was treated with Ex 45 and supplemented with daily administration of estrone sulfate. The second one was sham administered with the vehicle and supplemented with the same dosage of estrone sulfate. Ex 45 was orally administered at 5 mg/kg/day for 5 weeks. Xenografts were measured weekly by electronic Caliper and compared to the estrone sulfate group. (Table 5).

[1] = target: human carbonic anhydrase II (Homo sapiens, UniProt P00918); assay: Human carbonic anhydrase II activity (p-nitrophenyl acetate, colorimetric); format: biochemical; conditions: read-out: Human carbonic anhydrase II activity IC50 (nm) ± S.E.M.
Protocol: Briefly, in this assay, human carbonic anhydrase II catalyses the conversion of p-nitrophenyl acetate into pnitrophenol. The potential inhibitory effect of test compounds was evaluated by colorimetric determination of prnitrophenol produced during the enzymatic reaction. The optical density levels obtained without inhibitor will be referred to as “total activity”. The levels obtained without Inhibitor and without the enzyme will be referred to as “blank” in order to assess any interference with the substrate during the assay (Table 2).

human aromatase = target: T1, human aromatase (Homo sapiens, UniProt P11511); assay: Dual aromatase and steroid sulfatase activities in JEG-3 cells: aromatase readout; format: cell-based; conditions: footnote c: dual aromatase and sulfatase activity, nd: not detected, read-out: Aromatase activity IC50 (nM) ± S.E.M.
T1 construct: The JEG-3 cell line, derived from a human placental choriocarcinoma, constitutively overexpresses human aromatase; endogenous in cells; host or cells: JEG-3 (human placental choriocarcinoma)
T1 sequence (P11511 1-503): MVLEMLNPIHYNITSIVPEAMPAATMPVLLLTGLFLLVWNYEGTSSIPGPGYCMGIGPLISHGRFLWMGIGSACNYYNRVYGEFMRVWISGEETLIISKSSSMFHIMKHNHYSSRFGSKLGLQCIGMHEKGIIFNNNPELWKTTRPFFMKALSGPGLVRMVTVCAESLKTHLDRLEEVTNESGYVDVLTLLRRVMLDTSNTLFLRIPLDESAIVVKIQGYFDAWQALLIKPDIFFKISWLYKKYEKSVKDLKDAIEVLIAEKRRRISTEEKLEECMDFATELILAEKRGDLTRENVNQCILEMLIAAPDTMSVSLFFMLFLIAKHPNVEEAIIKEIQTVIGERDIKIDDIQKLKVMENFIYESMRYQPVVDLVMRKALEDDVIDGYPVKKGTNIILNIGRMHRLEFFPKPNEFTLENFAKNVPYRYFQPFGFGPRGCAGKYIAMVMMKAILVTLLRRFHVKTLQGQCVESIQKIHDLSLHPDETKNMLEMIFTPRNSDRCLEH
Protocol: Assays were carried out with cells in logarithmic growth phase on 96-well microplates. 24 h before studies, cells were seeded in decomplemented fetal calf serum (dFCS) supplemented medium. The medium was removed 24 h later and cells were rinsed with PBS to eliminate any trace of dFCS. Then, ^3H-E1S was added in dFCS free medium, followed by test compounds at concentrations ranging from 10^−12 M to 10^−5 M. After 4 h of treatment, the medium was transferred into 96-deep-well microplates and centrifuged at 200×g for 10 min to pellet cells before toluene extraction. A fraction of the medium was used for toluene extraction in order to separate the conjugated substrate from non-conjugated products. The radioactivity in the toluene phase was measured by liquid scintillation counting. […] Finally, estrone sulfatase activity was expressed in pmoles of ^3H-E1+^3H-E2 formed/4 hours/mg DNA and estrone sulfatase inhibition as a percentage of control activity without inhibitor.
In order to evaluate the inhibitory potency of DASI compounds in parallel on both human aromatase and steroid sulfatase activities, a new in vitro model was set up using JEG-3 cells. The experimental conditions of the steroid sulfatase model previously described was adopted with slight modifications: the presence of the two substrates ^3-HE1S and 1β-^3H-androstenedione into the medium and an incubation period of 2 hours. Results were expressed in pmoles of product formed (^3H-E1+^3H-E2 or ^3H2O)/2 hours/mg DNA (Table 1).

steroid sulfatase = assay: Anti uterotrophic/anti steroid sulfatase activity in vivo; parameters: species or system rat
Protocol: Wistar female rats were ovariectomized and left to rest for 4 weeks. Prior to treatment, the absence of cyclicity was checked by vaginal smears. Animals were supplemented with estrone sulfate (EIS) at 50 μg/kg/day s.c., alone or combined with oral administration of potential sulfatase inhibitors, at 1 mg/kg/day for 4 days. The uteri were removed, freed of adjacent tissue and wet weighed (Table 3).
Estrone sulfatase activity is measured according to the method described by Purohit et al., with slight modifications. Briefly, uteri were thawed, weighed and homogenized. Aliquots of the supernatant were treated with dextran-coated charcoal and assayed for sulfatase. E1S activity is assessed after 30 min of incubation with 5 nM of ^3H-E1S and 20 μM of unlabelled E1S as substrate. Estrone sulfatase activity is expressed as pmol/h/mg protein and reported as percentage of inhibition vs E1S; for uterus weights, results are expressed as % of inhibition of the E1S induced stimulation

IC50 [1]: 0.0162 ± 0.0033 µM | IC50 (human aromatase): < 1 nM
Structure (SMILES): Cl.N#Cc1ccc(N(Cc2ccc(OS(N)(=O)=O)c(Br)c2)n2ccnc2)cc1 [Ex 45, Sulfamic acid 2-bromo-4-{[N-(4-cyanophenyl)-N-(1H-imidazol-1yl)amino]methyl}phenyl ester, hydrochloride]
Volume variations (expressed as % of E1S positive control group) (MCF7 cells; Day 7): 0% | Volume variations (expressed as % of E1S positive control group) (MCF7 cells; Day 28): −26% | Volume variations (expressed as % of E1S positive control group) (MCF7 cells; Day 35): −44% | Volume variations (expressed as % of E1S positive control group) (MCF7 cells; Day 42): −39% | decrease in tumor volume (MCF7 cells; at the end of the experiments, after five weeks of daily treatment, 5 mg/kg/day oral): 40% | tumor volumes (in words) (MCF7 cells; vs groups only treated with estrone sulfate (E1S)): did not increased | inhibition of E1S (sulfatase) concluded from uterus weight inhibition (steroid sulfatase; concluded from linear correlation between sulfatase inhibition and uterus weight inhibition (WO 2004/101545)): > 90% | % inhibition (uterus weight) (steroid sulfatase; ovariectomized Wistar female rats, E1S 50 μg/kg/day s.c., oral 1 mg/kg/day for 4 days, % of inhibition of the E1S induced stimulation): 70%

Source: US8476455B2, “1-N-phenyl-amino-1h-imidazole derivatives and pharmaceutical compositions containing them” (Laboratoire Theramex, priority 2003, dated 2013)
